For one experiment, the target named is T1, human androgen receptor (Homo sapiens, UniProt P10275).
T1 construct: expressed in transfected cells
T1 sequence (P10275 1-920): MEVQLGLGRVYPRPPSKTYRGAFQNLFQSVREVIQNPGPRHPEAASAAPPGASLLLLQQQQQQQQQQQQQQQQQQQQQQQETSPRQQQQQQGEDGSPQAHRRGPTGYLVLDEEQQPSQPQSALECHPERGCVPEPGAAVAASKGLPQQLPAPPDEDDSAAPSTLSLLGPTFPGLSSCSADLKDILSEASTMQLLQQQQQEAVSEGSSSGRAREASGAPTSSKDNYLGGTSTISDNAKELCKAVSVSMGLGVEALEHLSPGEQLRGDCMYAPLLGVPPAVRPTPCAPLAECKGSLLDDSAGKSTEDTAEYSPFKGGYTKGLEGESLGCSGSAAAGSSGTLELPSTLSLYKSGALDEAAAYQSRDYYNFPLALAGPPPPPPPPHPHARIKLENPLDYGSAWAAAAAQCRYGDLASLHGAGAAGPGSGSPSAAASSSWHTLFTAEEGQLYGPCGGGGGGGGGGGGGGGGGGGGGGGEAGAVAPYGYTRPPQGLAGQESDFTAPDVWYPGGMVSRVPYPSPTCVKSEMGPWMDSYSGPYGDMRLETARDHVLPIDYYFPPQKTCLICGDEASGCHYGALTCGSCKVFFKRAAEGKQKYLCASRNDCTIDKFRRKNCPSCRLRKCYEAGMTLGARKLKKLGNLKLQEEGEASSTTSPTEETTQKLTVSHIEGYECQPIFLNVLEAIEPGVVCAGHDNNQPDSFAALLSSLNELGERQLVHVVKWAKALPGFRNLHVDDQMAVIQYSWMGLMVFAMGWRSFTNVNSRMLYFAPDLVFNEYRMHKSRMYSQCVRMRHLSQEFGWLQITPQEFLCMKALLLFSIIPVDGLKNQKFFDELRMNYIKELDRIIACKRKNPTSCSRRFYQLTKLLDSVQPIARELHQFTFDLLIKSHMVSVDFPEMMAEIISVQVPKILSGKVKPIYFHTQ
Briefly: Yeast Antiandrogen Screen (YAAS), reporter gene assay. Type of experiment: cell-based. The settings on record: coincubated with 2.5 nM testosterone; for IC50: authentic standards 300 nM to 1 mM in ethanol, 24 h, three experiments, four-parameter logistic function, read-out: IC50, antiandrogenic in the YAAS. The procedure: (§1) The antiestrogenic and antiandrogenic activity of bottled water extracts was evaluated in reporter gene assays for human estrogen receptor alpha (Yeast Antiestrogen Screen, YAES) and human androgen receptor (Yeast Antiandrogen Screen, YAAS). To detect antagonists, Yeast Estrogen Screen and Yeast Androgen Screen were modified to analyze samples in the presence of the endogenous ligand of each receptor (17β-estradiol, testosterone). Receptor antagonists present in the sample cause a displacement of the endogenous ligand resulting in a decreased reporter gene signal.
(§2) The general assay procedures have been described previously, [24]. Briefly, SPE extracts were diluted 480 fold in assay medium and coincubated with 30 pM 17β-estradiol (YAES) or 2.5 nM testosterone (YAAS) dissolved in ethanol. Negative controls, solvent controls (ethanol and DMSO) with and without endogenous ligand, and positive controls (ligand coincubated with a known receptor antagonist, YAES: 80 µM hydroxytamoxifen, YAAS: 50 µM flutamide) were included in each experiment. The maximum solvent concentration was 0.4% v/v in all cases. Samples were analyzed in eight replicates, controls in 8–48 replicates. After 24 hours incubation at 30°C turbidity was read to assess cytotoxicity and β-galactosidase activity was determined. Samples from three extractions were tested in three independent YAES and YAAS experiments each.
(§3) Inhibition data is reported as means of three SPE extracts per sample analyzed in three experiments (with eight replicates each) resulting in a sample size of 63–72. The reported antagonistic activity corresponds to a sample volume equivalent to 3.75 mL bottled water.
Chemicals with best matching fragmentation and plausible structure (DEHM, DOM, DEHF, DOF) were purchased as authentic standards. Their antiestrogenic and antiandrogenic activity was evaluated in the bioassays (three experiments) as described above in concentrations ranging from 300 nM to 1 mM (in ethanol).

The target of experiment [1] is T2, human estrogen receptor alpha (Homo sapiens, UniProt P03372).
T2 construct: expressed in transfected cells
T2 sequence (P03372 1-595): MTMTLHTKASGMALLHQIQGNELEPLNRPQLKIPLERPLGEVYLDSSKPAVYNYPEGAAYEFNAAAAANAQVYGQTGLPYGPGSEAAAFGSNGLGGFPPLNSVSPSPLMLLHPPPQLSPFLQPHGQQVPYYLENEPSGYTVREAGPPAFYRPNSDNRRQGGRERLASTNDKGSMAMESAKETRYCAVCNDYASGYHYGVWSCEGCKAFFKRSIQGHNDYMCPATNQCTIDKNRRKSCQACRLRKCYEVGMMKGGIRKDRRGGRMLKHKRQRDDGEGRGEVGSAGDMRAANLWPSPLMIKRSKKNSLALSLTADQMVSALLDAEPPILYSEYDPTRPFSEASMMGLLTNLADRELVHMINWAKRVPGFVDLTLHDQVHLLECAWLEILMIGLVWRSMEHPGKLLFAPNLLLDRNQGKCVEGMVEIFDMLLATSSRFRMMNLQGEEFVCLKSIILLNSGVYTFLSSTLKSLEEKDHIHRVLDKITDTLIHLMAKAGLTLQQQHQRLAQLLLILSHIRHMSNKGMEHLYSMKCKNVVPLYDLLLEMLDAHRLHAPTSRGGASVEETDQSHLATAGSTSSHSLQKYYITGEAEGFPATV
The experiment can be described thus: Yeast Antiestrogen Screen (YAES), reporter gene assay. Format: cell-based. Conditions: coincubated with 30 pM 17β-estradiol; for IC50: authentic standards 300 nM to 1 mM in ethanol, 24 h, three experiments, four-parameter logistic function, read-out: IC50, antiestrogenic in the YAES. The procedure:
as §1, §2, §3
Their antiestrogenic and antiandrogenic activity was evaluated in the bioassays (three experiments) as described above in concentrations ranging from 300 nM to 1 mM (in ethanol).

Each structure is given as a SMILES string.

Regarding `CCCCC(CC)COC(=O)/C=C/C(=O)OCC(CC)CCCC` (stereo not shown) [DEHF, 2-Butenedioic acid (2E)-, 1,4-bis(2-ethylhexyl) ester], the “antiandrogenic activity in the YAAS (result in words)” value (shortened to “antiandrogenic activity in the YAAS”) at human androgen receptor was “inactive”.

Consider `CCCCC(CC)COC(=O)/C=C\C(=O)OCC(CC)CCCC` (stereo not shown) [DEHM, 2-Butenedioic acid (2Z)-, 1,4-bis(2-ethylhexyl) ester], for which the “antiandrogenic activity in the YAAS” value at human androgen receptor was “inactive”.

Turning to `CCCCCCCCOC(=O)/C=C/C(=O)OCCCCCCCC` [DOF, 2-Butenedioic acid (2E)-, 1,4-dioctyl ester], in experiment [1], the half-maximal inhibitory concentration (IC50) came out at 35.4 µM and the “antiestrogenic activity in the YAES (result in words)” value is “partially”. At human androgen receptor, the IC50 amounted to 15.8 µM and the “antiandrogenic activity in the YAAS” value is recorded as “partially”.

For `CCCCCCCCOC(=O)/C=C\C(=O)OCCCCCCCC` [DOM, 2-Butenedioic acid (2Z)-, 1,4-dioctyl ester], in experiment [1], the half-inhibitory concentration (IC50) amounted to 107 µM and the “antiestrogenic activity in the YAES (result in words)” value is recorded as “at high concentrations”. At human androgen receptor, the half-inhibitory concentration (IC50) was found to be 245 µM and the “antiandrogenic activity in the YAAS” value is recorded as “at high concentrations”.

The record behind these values is article PMC3756062, “Identification of Putative Steroid Receptor Antagonists in Bottled Water: Combining Bioassays and High-Resolution Mass Spectrometry” (PLoS ONE, 2013).
